Test results reported in patent publication US9458460B2, “Pharmaceutical compositions for treating cancer” (National University of Singapore, priority 2011, dated 2016).
Like-named read-outs stand apart in the source and are kept apart here.

Experiments:
Assay type in all cases: cell-based
BMP4 = BMP4 expression after 5-azadC treatment
Description: (§1) Gastric cancer cell lines were treated with 5-aza-2′-deoxycytidine (5-azadC), a chemical inhibitor of DNA methyltransferases to investigate if BMP4 gene expression is regulated by BMP4 promoter methylation.

SMAD1/5/8 = assay: phosphorylation of BMP-downstream targets after 5-azadC treatment
Description: as §1

AZ521 cells = assay: cisplatin growth inhibition and caspase-3 activation in BMP4-manipulated cells; settings: for GI50: read-out: absolute GI50
AGS cells = assay: cisplatin growth inhibition (GI50) in GC cell lines; settings: 48 hrs
Description: (§2) 20 GC cell lines were treated with increasing concentrations of cisplatin, from 0.1 μM to 1 mM. For each line, the cisplatin GI50, referring to the concentration of cisplatin required to cause 50% growth inhibition at 48 hrs.

YCC11 cells [1] = assay: as above; settings: 48 hrs
Description: as §2

YCC11 cells [2] = assay: cisplatin growth inhibition and caspase-3 activation in BMP4-manipulated cells; settings: for IC50: read-out: absolute 0150
GC cells = assay: high-content screening of morpho-cellular parameters after cisplatin treatment
Description: The reason for cell growth inhibition caused by cisplatin was determined using high-content screening (HCS), a cell-based technology allowing biological responses to be measured at the single-cell level, to quantify levels of caspase-3 activation in GC cells after cisplatin treatment. Five distinct morpho-cellular parameters were quantified for alterations induced by cisplatin—caspase3 activation, nuclear size, nuclear condensation, nuclear morphology and nuclear ellipticity.

Structure (SMILES): Nc1ncn([C@H]2C[C@H](O)[C@@H](CO)O2)c(=O)n1 [5-azadC, 5-aza-2′-deoxycytidine]
- BMP4 transcripts (BMP4; cisplatin sensitive lines YCC10 and YCC11 (BMP4 promoter methylated)): up-regulated
- BMP4 expression (BMP4; resistant cell lines MKN45 and AZ521 (BMP4 promoter unmethylated)): did not alter
- phosphorylated SMAD1/5/8 (SMAD1/5/8; cisplatin resistant lines MKN45 and AZ521): not affected
- phosphorylation of SMAD1/5/8 (SMAD1/5/8; cisplatin sensitive lines YCC10 and YCC11): increased

Structure (SMILES): N.N.[Cl][Pt][Cl] [cisplatin, cis-diamminedichloroplatinum (II)]
- GI50 (AZ521 cells; BMP4-silenced AZ521 cells (individual clones 1 and 2)): 1.1 to 3.24 µM
- caspase-3 activation levels (AZ521 cells; BMP4-silenced AZ521 cells compared to control cells, after cisplatin treatment): significantly higher
- GI50 (AZ521 cells; parental AZ521 cells): 15 µM
- GI50 (AGS cells): 126 µM
- GI50 (YCC11 cells [1]): 1.5 µM
- IC50 (YCC11 cells [2]; BMP4-overexpressing YCC11 cells (individual clones 1 and 2)): 0.2 to 0.5 µM
- active Caspase-3 levels (YCC11 cells [2]; BMP4-overexpressing YCC11 cells, after cisplatin): reduction
- IC50 (YCC11 cells [2]; parental YCC11 cells): 0.045 µM
- caspase-3 activation levels (GC cells; cisplatin-sensitive lines compared to cisplatin-resistant lines): Significantly higher
- nuclear ellipticity (GC cells; top four sensitive lines compared to resistant lines): Significant changes
